From patent US20170095512A1, “METHODS OF INDUCING MYELINATION AND MATURATION OF OLIGODENDROCYTES” (KADIMASTEM LTD., priority 2014, published 2017)
“Also recorded” adds a separate entry of the source.

Assays:
[1] = system: glial progenitor cells derived from human ES cells (Olig2 positive cells); experiment: hOPC differentiation assay, Olig2 positive cells (immunostaining, high content screening); assay type: cell-based
Method: In order to initiate differentiation 20,000 GPCs were seeded in each well of Matrigel coated plates of 96 wells, or on PolyD-Lysine/laminin (PDL/lam)-coated 96 well plates. Cells were grown in GM media for two to three days. Then GM was replaced by differentiation medium without growth factors, (DMEM/F12, 1% B27, 0.5% N2, Vitamin C (Sigma, 50 ug/ml). Differentiation medium was supplemented with the following tested compounds: […] All media were replaced every other day. The oligodendrocyte lineage cells were characterized by the expression of a transcription factor olig2. The rabbit polyclonal AB anti olig2 (Millipore cat AB9610) was added to PFA fixed cells. […] The fixed cells were washed three times in blocking solution, olig2 diluted 1/500, in blocking solution, was added for 1 hour. The fixed cells were washed with PBS 3 times and goat anti rabbit Alexa Fluor 568 1/500 in PBS was added for 45 minutes. The fixed cells were washed three times. ArrayScan VTI HCS reader system (Cellomis, Thermo-scientific) was used for scanning at least 20 fields for each tested well under 10× objective in both assays (differentiation and myelination). Cellomics Neural profiling bio-application was used for processing and analyzing the images. For differentiation assay, the following parameters were tested: number and percentage of O4+ cells, number of processes, processes length and number of branching points. For myelination assay, the same morphological parameters were tested and in addition: areas of myelinated axons in pixels (MBP&NF overlap area) and Number of myelinated regions (MBP&NF overlap count) were also analyzed. Modifications in the Neuro-profiling bio-application were conducted for this specific purpose. T-test analysis was used to compare between treatments. The 4-parameter Hill-Slope curve fittings were generated by GraphPad Prism software using least squares fitting method and EC50 values were calculated. […] The cells at passage five were cultured for three days with GM on 96 well plates and after fixation, cells were reacted with anti-olig2 Ab, and olig2 positive cells and nuclei were scanned in the Thermo Scientific™ ArrayScan™ XTI High Content Analysis (HCA) Reader and counted with the neural profiling program. On the other hand the cells surface antigens O4 and PDGFRa were detected on dissociated cells after fixation and reaction with O4 Ab conjugated to APC, anti PDGFRa PE, as well as A2B5 PE all obtained from BD. Flow cytometry was conducted in BD FACS Canto II. […] Time points used for analysis are 21, 28, 35 and 42 days of differentiation, for each time point 20 fields were analyzed. […] In this experiment, cells at passage 4 were pretreated in differentiation medium with Noggin for 14 days, and split before seeding on 96 well plates.

[2] = system: human oligodendrocytes precursor cells (hOPC); experiment: Microarray gene expression analysis of LDN treated hOPC; assay type: cell-based; settings: 125 nM, 35 days
Method: LDN (125 nM) was supplemented to human oligodendrocytes precursor cells (hOPC) for 35 days. Microarray analysis was performed on duplicate of LDN treated and Non-treated (NT) hOPC.

With `c1ccc2c(-c3cnn4cc(-c5ccc(N6CCNCC6)cc5)cnc34)ccnc2c1` [LDN-193189] the “Olig2+ cells number / differentiation (summary statement)” value [1] was “increased the number of O4+ and Olig2+ cells; also recorded: stimulates the formation of olig2 positive cells”, the EC50 ([1]; 21 days, differentiation medium without noggin, with or without PDGF (20 ng/ml), read-out: EC50 (percentage of olig2 positive cells)) was ~30 nM and the “number / percentage of Olig2+ cells (hOPC commitment)” value ([1]; day 21, Noggin 50 ng/ml + PDGF 20 ng/ml, Dorsomorphin 2 μM, LDN-193189 125 nM) was “increased the number of Olig2+”. The “conversion of neural stem cells to Olig2 positive cells” value ([1]; days 21, 28, 35, 42, noggin 100 ng/ml, LDN-193189 62.5 nM and 125 nM) was “stimulate the conversion of neural stem cells to Olig2 positive cells”, the “LDN expression value: ADAMTS5, cluster 16924620” value [2] was 4.59 and the “LDN expression value: AN04, cluster 16755712” value [2] was 3.1. For the same compound, the “LDN expression value: ARHGAP28, cluster 16850724” value [2] was 3.09, the “LDN expression value: ASPN, cluster 17095887” value [2] was 9.23 and the “LDN expression value: ATP8B1, cluster 16855510” value [2] was 3.98. The “LDN expression value: BCAS1, cluster 16920475” value [2] was 6.52, the “LDN expression value: BMP8B, cluster 16685729” value [2] was 4.53 and the “LDN expression value: C1QTNF9B-AS1, cluster 16773183” value [2] was 3.69. The “LDN expression value: CACNG5, cluster 16837160” value [2] was 5.71, the “LDN expression value: CATSPER2P1, cluster 16808340” value [2] was 5.12 and the “LDN expression value: CGB2, cluster 16863963” value [2] was 4.05. The “LDN expression value: CKMT1A, cluster 16800268” value [2] was 4.08, the “LDN expression value: CLDN25, cluster 16731401” value [2] was 4.26 and the “LDN expression value: CLVS2, cluster 17012223” value [2] was 4.53. The “LDN expression value: COL12A1, cluster 17020846” value [2] was 8.23, the “LDN expression value: CYTL1, cluster 16973934” value [2] was 5.81 and the “LDN expression value: DLX2, cluster 16905108” value [2] was 6.25. For the same compound, the “LDN expression value: DLX6-AS1, cluster 17060039” value [2] was 5.13, the “LDN expression value: EFTUD1P1, cluster 16804141” value [2] was 3.87 and the “LDN expression value: FLJ16124, cluster 16880774” value [2] was 3.13. The “LDN expression value: GABRQ, cluster 17107855” value [2] was 6.76, the “LDN expression value: GAD2, cluster 16703382” value [2] was 3.71 and the “LDN expression value: GFRA1, cluster 16718670” value [2] was 7.52. The “LDN expression value: GJB2, cluster 16777185” value [2] was 4.88, the “LDN expression value: GPR126, cluster 17013126” value [2] was 5.42 and the “LDN expression value: GRIK1, cluster 16924761” value [2] was 7.51. The “LDN expression value: GSX2, cluster 16966801” value [2] was 4.62, the “LDN expression value: HCG24, cluster 17028423” value [2] was 2.38 and the “LDN expression value: ID1, cluster 16912362” value [2] was 4.47. The “LDN expression value: ID3, cluster 16683377” value [2] was 5.5, the “LDN expression value: IGLV3-9, cluster 16927827” value [2] was 5.34 and the “LDN expression value: IL17RB, cluster 16941871” value [2] was 4.55. For the same compound, the “LDN expression value: INSM1, cluster 16911917” value [2] was 6.13, the “LDN expression value: KIAA1199, cluster 16803754” value [2] was 4.07 and the “LDN expression value: LOC284632, cluster 16660753” value [2] was 3.33. The “LDN expression value: LOC100286922, cluster 16909695” value [2] was 3.3, the “LDN expression value: LPAR3, cluster 16688992” value [2] was 5.8 and the “LDN expression value: LRRC7, cluster 16665976” value [2] was 3.48. The “LDN expression value: LRRTM1, cluster 16899533” value [2] was 3.97, the “LDN expression value: MIR1226, cluster 16940440” value [2] was 4.98 and the “LDN expression value: MIR1321, cluster 17105179” value [2] was 3.47. The “LDN expression value: MIR3160-1, cluster 16724356” value [2] was 4.18, the “LDN expression value: MSLNL, cluster 16822561” value [2] was 5.67 and the “LDN expression value: NUDT9P1, cluster 16716499” value [2] was 3.56. For the same compound, the “LDN expression value: OR2V1, cluster 17004061” value [2] was 3.13, the “LDN expression value: OTTHUMG00000156244, cluster 17056553” value [2] was 4.16 and the “LDN expression value: OTTHUMG00000176466, cluster 16826102” value [2] was 5.02. For the same compound, the “LDN expression value: PAPPA2, cluster 16674151” value [2] was 4.24, the “LDN expression value: PDE5A, cluster 16979339” value [2] was 4.13 and the “LDN expression value: PPP1R17, cluster 17044956” value [2] was 5.13. The “LDN expression value: RNA5SP482, cluster 16912470” value [2] was 2.92, the “LDN expression value: SCARNA1, cluster 16661495” value [2] was 2.28 and the “LDN expression value: SCGN, cluster 17005473” value [2] was 6.7. The “LDN expression value: SERPINA3, cluster 16787902” value [2] was 5.07, the “LDN expression value: SLC1A2, cluster 16737325” value [2] was 6.08 and the “LDN expression value: SLC1A4, cluster 16880712” value [2] was 8.96. For the same compound, the “LDN expression value: SLC1A5, cluster 16873632” value [2] was 6.29, the “LDN expression value: SNORA70B, cluster 16898108” value [2] was 2.38 and the “LDN expression value: SNORD1B, cluster 16838101” value [2] was 3.01. For the same compound, the “LDN expression value: SNORD37, cluster 16867229” value [2] was 3.63, the “LDN expression value: SNORD88B, cluster 16874641” value [2] was 5.05 and the “LDN expression value: SOX10, cluster 16934881” value [2] was 6.63. The “LDN expression value: SP8, cluster 17055689” value [2] was 4.65, the “LDN expression value: ST18, cluster 17077073” value [2] was 2.85 and the “LDN expression value: TEX35, cluster 16674240” value [2] was 3.05. The “LDN expression value: TNFAIP6, cluster 16886491” value [2] was 5.47, the “LDN expression value: TNR, cluster 16696624” value [2] was 8.09 and the “LDN expression value: TRAJ46, cluster 16782032” value [2] was 3.99. The “LDN expression value: TRIM65, cluster 16848961” value [2] was 5.41, the “LDN expression value: TTK, cluster 17010552” value [2] was 5.68 and the “LDN expression value: UGT8, cluster 16970001” value [2] was 8.99. For the same compound, the “LDN expression value: WIF1, cluster 16767081” value [2] was 5.73, the “LDN expression value: ZIC2, cluster 16776103” value [2] was 4.76 and the “LDN expression value: cluster 16662690” value [2] was 3.02. The “LDN expression value: cluster 16689704” value [2] was 2.34, the “LDN expression value: cluster 16697040” value [2] was 3.18 and the “LDN expression value: cluster 16697217” value [2] was 3.02. The “LDN expression value: cluster 16703561” value [2] was 5.3, the “LDN expression value: cluster 16707466” value [2] was 3.92 and the “LDN expression value: cluster 16740950” value [2] was 5.53. The “LDN expression value: cluster 16742286” value [2] was 4.35, the “LDN expression value: cluster 16758848” value [2] was 4.29 and the “LDN expression value: cluster 16766940” value [2] was 6.76. For the same compound, the “LDN expression value: cluster 16781352” value [2] was 4.74, the “LDN expression value: cluster 16797929” value [2] was 5.86 and the “LDN expression value: cluster 16834632” value [2] was 3.21. The “LDN expression value: cluster 16846798” value [2] was 5.15, the “LDN expression value: cluster 16906256” value [2] was 3.32 and the “LDN expression value: cluster 16926511” value [2] was 5.66. The “LDN expression value: cluster 16928859” value [2] was 2.2, the “LDN expression value: cluster 16985206” value [2] was 3.41 and the “LDN expression value: cluster 16997369” value [2] was 4.3. The “LDN expression value: cluster 17012233” value [2] was 3.53, the “LDN expression value: cluster 17042403” value [2] was 7.47 and the “LDN expression value: cluster 17056789” value [2] was 6.64. For the same compound, the “LDN expression value: cluster 17063571” value [2] was 2.81, the “LDN expression value: cluster 17112263” value [2] was 2.9 and the “LDN expression value: cluster 17117590” value [2] was 5.68. For the same compound, the “LDN expression value: cluster 17118266” value [2] was 2.43, the “LDN expression value: cluster 17118303” value [2] was 3.61 and the “LDN expression value: cluster 17124590” value [2] was 2.62.
